In patent US7211678B2, “Stable crystals of pyrrole compound” (Nippon Shinyaku Co., Ltd., priority 2001, dated 2007):

What was measured:
[1] = Dry grinding test (planet ball mill, evaluated by powder X-ray spectrum); assay type: physicochemical; details: 1 g, 2480 rpm for 5 hours
Procedure: Type-I crystal (1 g) and type-II crystal (1 g) were respectively charged in a planet ball mill (manufactured by Fritsch Japan) and then grinded at 2480 rpm for 5 hours. The grinded crystals were evaluated by a powder X-ray spectrum.

[2] = as described in WO96/40634; cited from earlier work

SMILES	crystal transition after dry grinding [1]	urinary bladder capacity increasing activity [2]
Cc1c(-c2ccccc2F)[nH]c(N)c1C#N [type-I crystal, 2-amino-3-cyano-4-methyl-5-(2-fluorophenyl)pyrrole]	No crystal transition was recognized	–
Cc1c(-c2ccccc2F)[nH]c(N)c1C#N [type-II crystal, 2-amino-3-cyano-4-methyl-5-(2-fluorophenyl)pyrrole, reference compound]	transition of crystals into type-I crystal was recognized	–
Cc1c(-c2ccccc2F)[nH]c(N)c1C#N [the pyrrole compound, 2-amino-3-cyano-4-methyl-5-(2-fluorophenyl)pyrrole]	–	excellent urinary bladder capacity increasing activity
